Entries after “also recorded” stand apart in the source; their conditions may differ.
Columns and labels:
[1] = tested on: Human proximal tubules formed on 2D solid surfaces; test: Transport assays with fluorescent substrates in tubules formed on 2D solid surfaces; format: cell-based; conditions: 20 h incubation, lucifer yellow 80 μM, rhodamine 123 10 μM, 5,6-carboxyfluorescein 5 μM, BODIPY FL verapamil 5 μM
Experimental: Transport assays: Tubules formed 1-2 weeks after seeding were cultivated in phenol red-free medium supplemented with 80 μM of lucifer yellow (Sigma Aldrich Chemical Corp, Singapore), 10 μM of rhodamine 123 (Invitrogen, Singapore), 5 μM of 5,6-carboxydichlorofluorescein diacetate (5,6-carboxyfluorescein) (Invitrogen) or 5 μM of BODIPY FL verapmil (Invitrogen). Tubules were fixed after 20 h of incubation, and subsequently stained with 4′,6′-diamidino-2′-phenylindole (DAPI).
FIG. 11: Organic anion transport. Human proximal tubules formed on 2D solid surfaces were incubated for 20 h with the organic anions lucifer yellow (A, B; green), rhodamine 123 (C; red), 5,6-carboxyfluorescein (D; green) and BODIPY FL verapamil (F; green). Tubules are fixed before imaging, and the cell nuclei are counterstained with DAPI (blue). […] The arrowhead points to a region that is enlarged in the inset. The DAPI-stained nuclei of the outer cell layer are on the right in the inset. […] Scale bars: 100 μm.

[2] = tested on: primary rabbit renal proximal tubule cells; conditions: added to confluent rabbit cell cultures for at least 72 hours; TGF-β1 10 ng/ml, EGF 1 nM, RA 0.1 μM; cited from earlier work
[3] = tested on: primary human renal proximal tubule cells (HPTCs); test: TGF-β1 treatment of confluent HPTC patches in Humes basal medium; format: cell-based; conditions: 10 ng/ml TGF-β1 on confluent patches in Humes basal medium
Experimental: The Humes et al. method used primary rabbit proximal tubule cells. The references indicate three factors are necessary in the growth medium for 2D tubulogenesis: (i) transforming growth factor (TGF)-β1; (ii) epidermal growth factor (EGF); and all-trans retinoic acid (RA). The method involves cultivation of primary rabbit renal proximal tubule cells in the following medium: Dulbecco's modified Eagle's:Ham's F-12 media (1:1, v/v) containing L-glutamine, penicillin, streptomycin, 50 nM hydrocortisone, 5 μg/ml of insulin, and 5 μg/ml of transferrin, referred to herein as Humes basal medium.
In a second set of experiments cells were again cultivated in Humes basal medium. In accordance with the previous results, massive cell death occurred although some cells survived and formed some confluent patches after 2 weeks. By this time cell growth was very slow and overall confluency could not be achieved. However, the confluent patches were treated with 10 ng/ml TGF-β1 in accordance with the Humes et al. method.

[4] = tested on: primary human renal proximal tubule cells (HPTCs); test: TGF-β1 treatment of confluent HPTC monolayers in complete HPTC medium; format: cell-based
Experimental: Cell culture: Different batches of HPTCs were obtained from ScienCell Research Laboratories (Carlsbad, Calif., USA). Cells were cultivated in basal epithelial cell medium supplemented with 2% fetal bovine serum (FBS) and 1% epithelial cell growth supplement (ScienCell Research Laboratories). In some experiments, TGF-β1 (R&D Systems, Minneapolis, Minn., USA) was added at a concentration of 10 ng/ml after monolayer formation.
FIG. 17: Growth factor expression and effects of TGF-β1. (A) The expression levels of TGF-β1, α-SMA, LIF, FGF2, KGF and HGF are monitored over a period of 4 weeks. […] Panels B-D show the cells treated for 3 days with 10 ng/ml TGF-β1 after monolayer formation. […] Scale bar: 500
A fourth experimental series was performed with our HPTC medium containing all supplements including FBS. HPTCs were grown to confluency and then treated with TGF-β1 (10 ng/ml; same concentration as used for the rabbit cells). After three days massive cords and aggregates of cells with an elongated, myofibroblastic morphology had formed in 6/6 wells. Although in the complete HPTC medium with FBS, cords and cell aggregates also form without the addition of extra TGF-β1, such structures formed more consistently after addition of TGF-β1. […]

Row | Compound | localisation of the fluorescent substrate after incubation (transport across tubular epithelium) [1] | structures formed from confluent monolayer [2] | further results
1 | lucifer yellow | the lumen is strongly labeled; also recorded: became enriched in the tubular lumen |  | 
2 | EGF: epidermal growth factor (NSDSECPLSHDGYCLHDGVCMYIEALDKYACNCVVGYIGERCQYRDLKWWELR; UniProt P01133 971-1023, looked up) |  | no dramatic effects on the monolayer | 
3 | 5,6-carboxydichlorofluorescein diacetate [5,6-carboxyfluorescein] | enriched in the tubular interior; also recorded: became enriched in the tubular lumen |  | 
4 | CC1=C(/C=C/C(C)=C/C=C/C(C)=C/C(=O)O)C(C)(C)CCC1 [RA, all-trans retinoic acid] |  | no dramatic effects on the monolayer | 
5 | BODIPY FL verapamil | enriched in the cytoplasm of tubular and monolayer cells |  | localisation of the fluorescent substrate after incubation (transport across tubular epithelium) ([1]; listed as BOPIPY FL verapamil): became enriched within the cells
6 | rhodamine 123 | became enriched in the tubular lumen |  | localisation of the fluorescent substrate after incubation (transport across tubular epithelium) ([1]; listed as Rhodamine 123): enriched in the tubular lumen
7 | TGF-β1: transforming growth factor β1 (R&D Systems), 10 ng/ml |  | formation of solid aggregates of adherent cells (no lumen) | effect on the monolayer, cord and tubule formation [3]: no obvious effect on the monolayer and no cord and tubule formation was observed; wells with massive cords and aggregates of cells of myofibroblastic morphology ([4]; 10 ng/ml TGF-β1, after three days, complete HPTC medium with FBS): 6/6; effect on the monolayer ([4]; 10 ng/ml TGF-β1 for 3 days after monolayer formation): induces rearrangements leading to the formation of condensed stripes of cells and areas devoid of cells; also recorded: rearrangement of the monolayer into a condensed stripe of cells and to the formation of cell aggregates

Source: patent US20110236874A1, “METHOD FOR FORMATION OF RENAL TUBULES” (priority 2008, published 2011)
